Source: patent publication US20220041616A1, “SPIRO COMPOUND AND MEDICAL USES THEREOF” (The National Institutes of Pharmaceutical R&D Co., Ltd., priority 2018, published 2022)

Each compound was assayed against T1, Pyruvate Carboxylase (PC) (Bos taurus, UniProt Q29RK2) (assay: In vitro inhibition of pyruvate carboxylase (PC) activity, coupling method). Conditions: top concentration 50 μM.
T1 construct: purchased Sigma
T1 sequence (Q29RK2 21-1178): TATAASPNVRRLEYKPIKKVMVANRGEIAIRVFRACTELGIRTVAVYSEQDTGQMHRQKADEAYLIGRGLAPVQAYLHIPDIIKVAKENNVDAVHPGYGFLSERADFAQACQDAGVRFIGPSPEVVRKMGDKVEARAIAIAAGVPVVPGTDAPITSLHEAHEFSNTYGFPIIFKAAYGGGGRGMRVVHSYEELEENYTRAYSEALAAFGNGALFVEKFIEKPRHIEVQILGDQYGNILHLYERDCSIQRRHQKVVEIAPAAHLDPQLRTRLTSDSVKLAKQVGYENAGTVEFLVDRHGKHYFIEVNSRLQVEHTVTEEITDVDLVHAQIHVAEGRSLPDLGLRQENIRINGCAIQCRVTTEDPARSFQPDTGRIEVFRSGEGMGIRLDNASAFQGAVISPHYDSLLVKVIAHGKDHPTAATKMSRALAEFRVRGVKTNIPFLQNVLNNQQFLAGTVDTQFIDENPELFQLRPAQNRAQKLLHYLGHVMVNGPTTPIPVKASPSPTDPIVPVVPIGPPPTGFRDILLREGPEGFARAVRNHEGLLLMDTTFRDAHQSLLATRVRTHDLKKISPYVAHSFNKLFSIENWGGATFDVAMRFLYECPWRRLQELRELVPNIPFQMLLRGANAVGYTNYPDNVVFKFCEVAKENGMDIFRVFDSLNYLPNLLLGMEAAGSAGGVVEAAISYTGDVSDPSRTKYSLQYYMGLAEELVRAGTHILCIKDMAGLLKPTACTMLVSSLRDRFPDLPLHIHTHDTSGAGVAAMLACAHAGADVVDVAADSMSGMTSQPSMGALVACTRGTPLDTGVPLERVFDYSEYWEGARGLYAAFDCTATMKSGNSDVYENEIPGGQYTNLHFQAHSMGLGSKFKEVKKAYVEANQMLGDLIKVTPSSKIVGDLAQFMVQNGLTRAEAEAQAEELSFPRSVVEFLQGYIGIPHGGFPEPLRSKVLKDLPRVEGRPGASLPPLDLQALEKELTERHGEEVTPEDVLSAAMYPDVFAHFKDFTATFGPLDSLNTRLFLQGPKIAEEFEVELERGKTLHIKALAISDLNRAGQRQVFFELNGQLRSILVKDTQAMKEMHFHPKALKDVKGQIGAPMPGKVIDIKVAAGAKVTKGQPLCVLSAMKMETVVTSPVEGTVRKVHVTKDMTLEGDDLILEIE
Format: biochemical
Procedure: The in vitro analysis of the inhibitory effect of the present compound on PC activity was carried out by a coupling method. The PC reaction product oxaloacetate and β-NADH undergo a redox reaction under the catalysis of malate dehydrogenase, generating malic acid and NAD^+. Accordingly, the inhibition ability of the compound on PC can be reflected by detecting the change of absorbance value at 340 nm.
b. 65.7 μL PC enzyme reaction buffer (201 mM triethanolamine, 7.5 mM magnesium sulfate, 0.18% bovine serum albumin) was added to each well of a 96-well dilution plate (249944, Nunc), and then 1 μL of the serially diluted compound to be tested in step a was added to each well.
c. 10 μL of compound (prepared in step b) was added to each well of a 384-well test plate (3702, Corning). The reaction system with ZnCl2 at a final concentration of 500 μM was used as positive control; the reaction system with no compound but DMSO at a final concentration of 0.5% was used as negative control.
d. 10 μL of PC enzyme (Sigma, 0.15 U/ml stock solution of PC enzyme dissolved in 0.15 mM Tris-HCl pH 7.4, 0.006 mM Mg(AcO)2, 0.15% glycerol, and 0.003 mM EDTA) was added to each well of the 384-well test plate (prepared in step c), centrifuged at 1000 rpm for 1 min, and incubated at room temperature for 15 min.
e. 10 μL of substrate mixture (1.5 mM sodium pyruvate, 1.5 mM ATP, 0.15 mM acetyl-CoA, 45 mM sodium bicarbonate, 0.69 mM NADH, 3 U/ml malate dehydrogenase, 201 mM triethanolamine, 7.5 mM magnesium sulfate, and 0.18% bovine serum albumin) was added to each well of the 384-well test plate (prepared in step d), and centrifuged at 1000 rpm for 1 min. The final concentrations of each component in the PC enzymatic reaction system: 0.05 U/ml pyruvate carboxylase, 0.5 mM sodium pyruvate, 0.5 mM ATP, 15 mM sodium bicarbonate, 0.23 mM β-NADH, 1 U/ml malic acid dehydrogenase, and 0.05 mM acetyl-CoA. Test compound concentrations: 50 μM, 16.667 μM, 5.556 μM, 1.852 μM, 0.617 μM, 0.206 μM, 0.0686 μM, 0.0229 μM, 0.00763 μM, 0.00254 μM, 0.000847 μM and 0.000282 μM. The final concentration of DMSO was 0.5% (v/v).
f. The absorbance at 340 nm was read by using EnVision 2104 plate reader (Perkin Elmer) with reading every 1 min for 40 min.
GraphPad Prism 6 software was used to perform a linear fit, and the concentration of each compound and the slope of the positive and negative controls were calculated. The inhibition percentage was calculated according to the following formula: 100×[1−(compound−average value of positive control)/(average value of negative control−average value of positive control)].
IC50 of the compound was obtained using GraphPad Prism 6 software according to the following nonlinear fitting formula:
Y=Bottom+(Top−Bottom)/(1+10^((Log IC50−X)×HillSlope)), […]

Row | IC50 | SMILES
1 | > 50 µM | COc1ccccc1C(CN1C(=O)C2(CC(C(=O)O)C2)C(=O)c2c1sc(-c1ncco1)c2C)OC1CCOCC1 (mixture of isomers) [Compound 8, 7′-(2-(2-methoxyphenyl)-2-((tetrahydro-2H-pyran-4-yl)oxy)ethyl)-3′-methyl-2′-(oxazol-2-yl)-4′,6′-dioxo-6′,7′-dihydro-4′H-spiro[cyclobutane-1,5′-thieno[2,3-b]pyridine]-3-carboxylic Acid]
2 | > 50 µM | COc1ccccc1C(CN1C(=O)C2(CCC(C(=O)O)C2)C(=O)c2c1sc(-c1ncco1)c2C)OC1CCOCC1 (single isomer, unassigned) [Compound 5b, 7′-(2-(2-methoxyphenyl)-2-((tetrahydro-2H-pyran-4-yl)oxy)ethyl)-3′-methyl-2′-(oxazol-2-yl)-4′,6′-dioxo-6′,7′-dihydro-4′H-spiro[cyclopentane-1,5′-thieno[2,3-b]pyridine]-3-carboxylic Acid]
3 | > 50 µM | COc1ccccc1C(CN1C(=O)C2(CC(C(=O)O)C2)C(=O)c2c1sc(-c1ncco1)c2C)OC1CCOCC1 (single isomer, unassigned) [Compound 8d, 7′-(2-(2-methoxyphenyl)-2-((tetrahydro-2H-pyran-4-yl)oxy)ethyl)-3′-methyl-2′-(oxazol-2-yl)-4′,6′-dioxo-6′,7′-dihydro-4′H-spiro[cyclobutane-1,5′-thieno[2,3-b]pyridine]-3-carboxylic Acid]
4 | > 50 µM | COc1ccccc1[C@H](CN1c2sc(-c3ncco3)c(C)c2C(=O)[C@]2(C[C@H](C(=O)O)C2)C1=O)OC1CCOCC1 [Compound 8c, 7′-(2-(2-methoxyphenyl)-2-((tetrahydro-2H-pyran-4-yl)oxy)ethyl)-3′-methyl-2′-(oxazol-2-yl)-4′,6′-dioxo-6′,7′-dihydro-4′H-spiro[cyclobutane-1,5′-thieno[2,3-b]pyridine]-3-carboxylic Acid]
